Results: patent publication US11780823B2, “Indazole-3-carboxamides and their use as Wnt/β-catenin signaling pathway inhibitors” (BioSplice Therapeutics, Inc., priority 2011, dated 2023)

Tested on: Wnt activity (wnt-responsive SP5 promoter luciferase reporter in SW480 cells)
Assay: Wnt reporter screening assay: SP5 promoter-driven firefly luciferase in SW480 cells
Assay type: cell-based
Conditions: Homo sapiens; SW480 colon cancer cells with SP5 promoter luciferase reporter; half-log dilutions, ten micromolar top concentration; read 24-40 h after compound addition; normalized to DMSO; read-out: Wnt inhibition
From the text: Another screening assay for Wnt activity is described as follows. Reporter cell lines can be generated by stably transducing cells of cancer cell lines (e.g., colon cancer) with a lentiviral construct that include a wnt-responsive promoter driving expression of the firefly luciferase gene.
Lentiviral constructs can be made in which the SP5 promoter, a promoter having eight TCF/LEF binding sites derived from the SP5 promoter, is linked upstream of the firefly luciferase gene. The lentiviral constructs can also include a hygromycin resistance gene as a selectable marker. The SP5 promoter construct can be used to transduce SW480 cells, a colon cancer cell line having a mutated APC gene that generates a truncated APC protein, leading to de-regulated accumulation of β-catenin.
Cultured SW480 cells bearing a reporter construct can be distributed at approximately 10,000 cells per well into 96 well or 384 well plates. Compounds from a small molecule compound library can then be added to the wells in half-log dilutions using a ten micromolar top concentration. A series of control wells for each cell type receive only buffer and compound solvent. Twenty-four to forty hours after the addition of compound, reporter activity for luciferase can be assayed, for example, by addition of the BrightGlo luminescence reagent (Promega) and the Victor3 plate reader (Perkin Elmer). Readings can be normalized to DMSO only treated cells, and normalized activities can then be used in the IC50 calculations.

SMILES | IC50 [nM]
CCOc1ccc(NC(=O)c2n[nH]c3ccc(-c4cncc(CN5CCCC5)c4)cc23)cn1 [Compound 44, N-(6-Ethoxypyridin-3-yl)-5-(5-(pyrrolidin-1-ylmethyl)pyridin-3-yl)-1H-indazole-3-carboxamide] | 158
CCOc1ccc(NC(=O)c2n[nH]c3ccc(-c4cncc(CN5CCCCC5)c4)cc23)cn1 [Compound 45, N-(6-Ethoxypyridin-3-yl)-5-(5-(piperidin-1-ylmethyl)pyridin-3-yl)-1H-indazole-3-carboxamide] | 110
O=C(Nc1cccnc1)c1n[nH]c2ccc(-c3cncc(CN4CCCCC4)c3)cc12 [Compound 46, 5-(5-(Piperidin-1-ylmethyl)pyridin-3-yl)-N-(pyridin-3-yl)-1H-indazole-3-carboxamide] | 15
O=C(Nc1cnccc1C(F)(F)F)c1n[nH]c2ccc(-c3cncc(CN4CCCCC4)c3)cc12 [Compound 47, 5-(5-(Piperidin-1-ylmethyl)pyridin-3-yl)-N-(4-(trifluoromethyl)pyridin-3-yl)-1H-indazole-3-carboxamide] | 71
O=C(Nc1cnccc1C(F)(F)F)c1n[nH]c2ccc(-c3cccnc3)cc12 [Compound 48, 5-(Pyridin-3-yl)-N-(4-(trifluoromethyl)pyridin-3-yl)-1H-indazole-3-carboxamide] | ≥ 10000
O=C(Nc1cccnc1)c1n[nH]c2ccc(-c3cccc(CN4CCCC4)c3)cc12 [Compound 49, N-(Pyridin-3-yl)-5-(3-(pyrrolidin-1-ylmethyl)phenyl)-1H-indazole-3-carboxamide] | 57
O=C(Nc1ccc(-c2ccccc2)nc1)c1n[nH]c2ccc(-c3cncc(CN4CCCC4)c3)cc12 [Compound 50, N-(6-Phenylpyridin-3-yl)-5-(5-(pyrrolidin-1-ylmethyl)pyridin-3-yl)-1H-indazole-3-carboxamide] | 71
O=C(Nc1cccnc1)c1n[nH]c2ccc(-c3ccc(N4CCCC4)nc3)cc12 [Compound 51, N-(Pyridin-3-yl)-5-(6-(pyrrolidin-1-yl)pyridin-3-yl)-1H-indazole-3-carboxamide] | 26
N#Cc1ccc(NC(=O)c2n[nH]c3ccc(-c4cncc(CN5CCCC5)c4)cc23)cn1 [Compound 52, N-(6-Cyanopyridin-3-yl)-5-(5-(pyrrolidin-1-ylmethyl)pyridin-3-yl)-1H-indazole-3-carboxamide] | 57
O=C(Nc1ccc(N2CCCC2)nc1)c1n[nH]c2ccc(-c3cccnc3)cc12 [Compound 53, 5-(Pyridin-3-yl)-N-(6-(pyrrolidin-1-yl)pyridin-3-yl)-1H-indazole-3-carboxamide] | 63
COc1ccc(-c2ccc3[nH]nc(C(=O)Nc4cccnc4)c3c2)cn1 [Compound 54, 5-(6-Methoxypyridin-3-yl)-N-(pyridin-3-yl)-1H-indazole-3-carboxamide] | 158
O=C(Nc1cccnc1)c1n[nH]c2ccc(-c3cncc(Cc4ccccc4)c3)cc12 [Compound 55, 5-(5-Benzylpyridin-3-yl)-N-(pyridin-3-yl)-1H-indazole-3-carboxamide] | 44
O=C(Nc1cccnc1)c1n[nH]c2ccc(-c3cncc(Oc4ccccc4)c3)cc12 [Compound 56, 5-(5-Phenoxypyridin-3-yl)-N-(pyridin-3-yl)-1H-indazole-3-carboxamide] | 160
O=C(Nc1cnccc1C(F)(F)F)c1n[nH]c2ccc(-c3cncc(CN4CCCC4)c3)cc12 [Compound 57, 5-(5-(Pyrrolidin-1-ylmethyl)pyridin-3-yl)-N-(4-(trifluoromethyl)pyridin-3-yl)-1H-indazole-3-carboxamide] | ≥ 10000
O=C(Nc1cnccc1NC(=O)C1CC1)c1n[nH]c2ccc(-c3cccnc3)cc12 [Compound 58, N-(4-(Cyclopropanecarboxamido)pyridin-3-yl)-5-(pyridin-3-yl)-1H-indazole-3-carboxamide] | 71
O=C(NC1CCCCC1)c1cncc(-c2ccc3[nH]nc(C(=O)Nc4cccnc4)c3c2)c1 [Compound 59, 5-(5-(Cyclohexylcarbamoyl)pyridin-3-yl)-N-(pyridin-3-yl)-1H-indazole-3-carboxamide] | 3100
CN1CCN(Cc2cc(F)cc(-c3ccc4[nH]nc(C(=O)Nc5cnccc5C(F)(F)F)c4c3)c2)CC1 [Compound 60, 5-(3-Fluoro-5-((4-methylpiperazin-1-yl)methyl)phenyl)-N-(4-(trifluoromethyl)pyridin-3-yl)-1H-indazole-3-carboxamide] | ≥ 10000

SMILES | IC50 [nM]
CN1CCN(Cc2cncc(-c3ccc4[nH]nc(C(=O)Nc5cccnc5)c4c3)c2)CC1 [Compound 61, 5-(5-((4-Methylpiperazin-1-yl)methyl)pyridin-3-yl)-N-(pyridin-3-yl)-1H-indazole-3-carboxamide] | 239
N#Cc1ccc(NC(=O)c2n[nH]c3ccc(-c4cncc(CN5CCCCC5)c4)cc23)cn1 [Compound 62, N-(6-cyanopyridin-3-yl)-5-(5-(piperidin-1-ylmethyl)pyridin-3-yl)-1H-indazole-3-carboxamide] | 16
O=C(Nc1ccc(C(F)(F)F)nc1)c1n[nH]c2ccc(-c3cncc(CN4CCCCC4)c3)cc12 [Compound 63, 5-(5-(Piperidin-1-ylmethyl)pyridin-3-yl)-N-(6-(trifluoromethyl)pyridin-3-yl)-1H-indazole-3-carboxamide] | 100
O=C(Nc1cccnc1)c1n[nH]c2ccc(-c3cncc(CN4CCOCC4)c3)cc12 [Compound 64, 5-(5-(Morpholinomethyl)pyridin-3-yl)-N-(pyridin-3-yl)-1H-indazole-3-carboxamide] | 6
O=C(Nc1ccc(-c2ccccc2)nc1)c1n[nH]c2ccc(-c3cncc(CN4CCCCC4)c3)cc12 [Compound 65, N-(6-Phenylpyridin-3-yl)-5-(5-(piperidin-1-ylmethyl)pyridin-3-yl)-1H-indazole-3-carboxamide] | 101
N#Cc1cncc(-c2ccc3[nH]nc(C(=O)Nc4cccnc4)c3c2)c1 [Compound 66, 5-(5-Cyanopyridin-3-yl)-N-(pyridin-3-yl)-1H-indazole-3-carboxamide] | ≥ 10000
O=C(Nc1cccnc1)c1n[nH]c2ccc(-c3cc(F)cc(CN4CCCCC4)c3)cc12 [Compound 67, 5-(3-Fluoro-5-(piperidin-1-ylmethyl)phenyl)-N-(pyridin-3-yl)-1H-indazole-3-carboxamide] | ≥ 10000
O=C(Nc1ccc(C(F)(F)F)nc1)c1n[nH]c2ccc(-c3cncc(CN4CCOCC4)c3)cc12 [Compound 68, 5-(5-(Morpholinomethyl)pyridin-3-yl)-N-(6-(trifluoromethyl)pyridin-3-yl)-1H-indazole-3-carboxamide] | 48
O=C(Nc1ccc(N2CCOCC2)nc1)c1n[nH]c2ccc(-c3cncc(CN4CCCCC4)c3)cc12 [Compound 69, N-(6-Morpholinopyridin-3-yl)-5-(5-(piperidin-1-ylmethyl)pyridin-3-yl)-1H-indazole-3-carboxamide] | 50
CN1CCN(c2ccc(NC(=O)c3n[nH]c4ccc(-c5cncc(CN6CCCCC6)c5)cc34)cn2)CC1 [Compound 70, N-(6-(4-Methylpiperazin-1-yl)pyridin-3-yl)-5-(5-(piperidin-1-ylmethyl)pyridin-3-yl)-1H-indazole-3-carboxamide] | 41
O=C(Nc1ccc(N2CCCC2)nc1)c1n[nH]c2ccc(-c3cncc(CN4CCCCC4)c3)cc12 [Compound 71, 5-(5-(Piperidin-1-ylmethyl)pyridin-3-yl)-N-(6-(pyrrolidin-1-yl)pyridin-3-yl)-1H-indazole-3-carboxamide] | 25
O=C(Nc1ccc(-c2cccc(F)c2)nc1)c1n[nH]c2ccc(-c3cncc(CN4CCCCC4)c3)cc12 [Compound 72, N-(6-(3-Fluorophenyl)pyridin-3-yl)-5-(5-(piperidin-1-ylmethyl)pyridin-3-yl)-1H-indazole-3-carboxamide] | 215
O=C(Nc1ccc(-c2ccc(F)cc2)nc1)c1n[nH]c2ccc(-c3cncc(CN4CCCCC4)c3)cc12 [Compound 73, N-(6-(4-Fluorophenyl)pyridin-3-yl)-5-(5-(piperidin-1-ylmethyl)pyridin-3-yl)-1H-indazole-3-carboxamide] | 322
CN(C)CCN(C)c1ccc(NC(=O)c2n[nH]c3ccc(-c4cncc(CN5CCCCC5)c4)cc23)cn1 [Compound 74, N-(6-((2-(Dimethylamino)ethyl)(methyl)amino)pyridin-3-yl)-5-(5-(piperidin-1-ylmethyl)pyridin-3-yl)-1H-indazole-3-carboxamide] | 65
O=C(Nc1ccnnc1)c1n[nH]c2ccc(-c3cncc(CN4CCCCC4)c3)cc12 [Compound 75, 5-(5-(Piperidin-1-ylmethyl)pyridin-3-yl)-N-(pyridazin-4-yl)-1H-indazole-3-carboxamide] | 40
O=C(NCc1cccnc1)c1n[nH]c2ccc(-c3cncc(CN4CCCCC4)c3)cc12 [Compound 76, 5-(5-(Piperidin-1-ylmethyl)pyridin-3-yl)-N-(pyridin-3-ylmethyl)-1H-indazole-3-carboxamide] | 850
O=C(NC1CCCCC1)c1n[nH]c2ccc(-c3cncc(CN4CCCCC4)c3)cc12 [Compound 77, N-Cyclohexyl-5-(5-(piperidin-1-ylmethyl)pyridin-3-yl)-1H-indazole-3-carboxamide] | 2650
